From ChEMBL document CHEMBL4261654, “Synthesis and in vitro antitumor activity of novel alkenyl derivatives of pyridoxine, bioisosteric analogs of feruloyl methane” (Bioorg Med Chem, 2018)
The source made the active and inactive calls. The rule behind the calls is not given here.

Legend:
MCF7 [1] = assay: Antiproliferative activity against human MCF7 cells after 72 hrs by MTT assay; type: functional, cell-based; conditions: MCF7, 72 h
HEK293 = assay: Antiproliferative activity against human HEK293 cells after 72 hrs by MTT assay; type: cell-based; conditions: HEK293, 72 h
OVCAR-4 [2] = assay: Potency index, ratio of compound IC50 to dehydrozingerone IC50 for antiproliferative activity against human OVCAR4 cells; type: functional
PC-3 [3] = assay: Cell cycle arrest in human PC3 cells assessed as accumulation at S phase at 10 uM after 72 hrs by RNase/propidium iodide staining-based flow cytometric analysis (reference value: 17 +/- 1%); type: functional
PC-3 [4] = assay: Induction of mitochondrial membrane potential loss in human PC3 cells assessed as fluorescence intensity at 10 uM after 24 hrs by TMRE dye-based flow cytometric analysis (reference value: 10101 +/- 853); type: functional
MDA-MB-231 [5] = assay: Potency index, ratio of compound IC50 to dehydrozingerone IC50 for antiproliferative activity against human MDA-MB-231 cells; type: functional
A498 [6] = assay: Potency index, ratio of compound IC50 to dehydrozingerone IC50 for antiproliferative activity against human A498 cells; type: functional
PC-3 [7] = assay: Antiproliferative activity against human PC3 cells after 72 hrs by MTT assay; type: functional, cell-based; conditions: PC-3, 72 h
PC-3 [8] = assay: Antiproliferative activity in human PC3 cells at 0.2 to 2 uM measured during 120 hrs each 15 mins by RTCA DP based cellular impedance analysis; type: functional, cell-based
MCF7 [9] = assay: Potency index, ratio of compound IC50 to dehydrozingerone IC50 for antiproliferative activity against human MCF7 cells; type: functional
SNB-19 [10] = assay: Potency index, ratio of compound IC50 to dehydrozingerone IC50 for antiproliferative activity against human SNB19 cells; type: functional
PC-3 [11] = assay: Potency index, ratio of compound IC50 to dehydrozingerone IC50 for antiproliferative activity against human PC3 cells; type: functional
HCT-116 [12] = assay: Potency index, ratio of compound IC50 to dehydrozingerone IC50 for antiproliferative activity against human HCT116 cells; type: functional
A498 [13] = assay: Antiproliferative activity against human A498 cells after 72 hrs by MTT assay; type: functional, cell-based; conditions: A498, 72 h
PC-3 [14] = assay: Antimigratory activity in human PC3 cells at 10 uM measured during 120 hrs each 15 mins by RTCA DP based cellular impedance analysis; type: functional
PC-3 [15] = assay: Antimigratory activity in human PC3 cells at 0.2 uM measured during 120 hrs each 15 mins by RTCA DP based cellular impedance analysis; type: functional
[16] = Antioxidant activity assessed as ferric ion reducing activity at 20 to 320 umol after 20 mins by FRAP assay; type: functional
HCT-15 [17] = assay: Potency index, ratio of compound IC50 to dehydrozingerone IC50 for antiproliferative activity against human HCT15 cells; type: functional
PC-3 [18] = assay: Induction of apoptosis in human PC3 cells assessed as intracellular ROS levels by measuring fluoresence intensity at 30 uM after 24 hrs by DCFH-DA staining-based flow cytometric analysis (reference value: 3176 +/- 398); type: functional
PC-3 [19] = assay: Cell cycle arrest in human PC3 cells assessed as accumulation at G0/G1 phase at 2 uM after 72 hrs by RNase/propidium iodide staining-based flow cytometric analysis (reference value: 61 +/- 3%); type: functional
NCI-H322M [20] = assay: Antiproliferative activity against human NCI-H322M cells after 72 hrs by MTT assay; type: functional, cell-based
[21] = Selectivity index, ratio of IC50 for HSF cells to IC50 for human MCF7 cells; type: toxicity; conditions: HSF cells versus MCF7 cells, read-out: Ratio IC50
HCT-15 [22] = assay: Antiproliferative activity against human HCT15 cells after 72 hrs by MTT assay; type: functional, cell-based; conditions: HCT-15, 72 h
[23] = Antiproliferative activity against HSF cells after 72 hrs by MTT assay; type: cell-based; conditions: Homo sapiens
[24] = Ratio of compound IC50 to dehydrozingerone IC50 for antiproliferative activity against HSF cells; type: cell-based; conditions: human, read-out: Ratio IC50
PC-3 [25] = assay: Cell cycle arrest in human PC3 cells assessed as accumulation at S phase at 2 uM after 72 hrs by RNase/propidium iodide staining-based flow cytometric analysis (reference value: 17 +/- 1%); type: functional
PC-3 [26] = assay: Induction of apoptosis in human PC3 cells assessed as early apoptotic cells at 10 uM after 24 hrs by Annexin V-PE/7-AAD staining-based flow cytometric analysis (reference value: 2%); type: functional
PC-3 [27] = assay: Induction of mitochondrial membrane potential loss in human PC3 cells assessed as fluorescence intensity at 30 uM after 24 hrs by TMRE dye-based flow cytometric analysis (reference value: 10101 +/- 853); type: functional
PC-3 [28] = assay: Cell cycle arrest in human PC3 cells assessed as accumulation at G0/G1 phase at 10 uM after 72 hrs by RNase/propidium iodide staining-based flow cytometric analysis (reference value: 61 +/- 3%); type: functional
PC-3 [29] = assay: Induction of apoptosis in human PC3 cells assessed as necrotic cells at 30 uM after 24 hrs by Annexin V-PE/7-AAD staining-based flow cytometric analysis (reference value: 14%); type: functional
PC-3 [30] = assay: Induction of mitochondrial membrane potential loss in human PC3 cells assessed as fluorescence intensity at 20 uM after 24 hrs by TMRE dye-based flow cytometric analysis (reference value: 10101 +/- 853); type: functional
MDA-MB-231 [31] = assay: Antiproliferative activity against human MDA-MB-231 cells after 72 hrs by MTT assay; type: functional, cell-based; conditions: MDA-MB-231, 72 h
OVCAR-4 [32] = assay: Antiproliferative activity against human OVCAR4 cells after 72 hrs by MTT assay; type: functional, cell-based; conditions: OVCAR-4, 72 h
PC-3 [33] = assay: Induction of apoptosis in human PC3 cells assessed as necrotic cells at 10 uM after 24 hrs by Annexin V-PE/7-AAD staining-based flow cytometric analysis (reference value: 14%); type: functional
NCI-H322M [34] = assay: Potency index, ratio of compound IC50 to dehydrozingerone IC50 for antiproliferative activity against human NCI-H322M cells; type: functional
PC-3 [35] = assay: Induction of apoptosis in human PC3 cells assessed as late apoptotic cells at 10 uM after 24 hrs by Annexin V-PE/7-AAD staining-based flow cytometric analysis (reference value: 8%); type: functional
PC-3 [36] = assay: Induction of apoptosis in human PC3 cells assessed as late apoptotic cells at 30 uM after 24 hrs by Annexin V-PE/7-AAD staining-based flow cytometric analysis (reference value: 8%); type: functional
PC-3 [37] = assay: Induction of apoptosis in human PC3 cells assessed as viable cells at 10 uM after 24 hrs by Annexin V-PE/7-AAD staining-based flow cytometric analysis (reference value: 70%); type: functional; conditions: PC-3, 24 h, read-out: Activity
PC-3 [38] = assay: Cell cycle arrest in human PC3 cells assessed as accumulation at G2/M phase at 2 uM after 72 hrs by RNase/propidium iodide staining-based flow cytometric analysis (reference value: 20 +/- 3%); type: functional
PC-3 [39] = assay: Induction of apoptosis in human PC3 cells assessed as early apoptotic cells at 30 uM after 24 hrs by Annexin V-PE/7-AAD staining-based flow cytometric analysis (reference value: 2%); type: functional
HCT-116 [40] = assay: Antiproliferative activity against human HCT116 cells after 72 hrs by MTT assay; type: functional, cell-based; conditions: HCT-116, 72 h
PC-3 [41] = assay: Induction of apoptosis in human PC3 cells assessed as intracellular ROS levels by measuring fluoresence intensity at 10 uM after 24 hrs by DCFH-DA staining-based flow cytometric analysis (reference value: 3176 +/- 398); type: functional
PC-3 [42] = assay: Induction of apoptosis in human PC3 cells assessed as intracellular ROS levels by measuring fluoresence intensity at 20 uM after 24 hrs by DCFH-DA staining-based flow cytometric analysis (reference value: 3176 +/- 398); type: functional
PC-3 [43] = assay: Antiproliferative activity in human PC3 cells at 10 uM measured after 120 hrs measured each 15 mins by RTCA DP based cellular impedance analysis; type: functional
M14 [44] = assay: Antiproliferative activity against human M14 cells after 72 hrs by MTT assay; type: functional, cell-based; conditions: M14, 72 h
M14 [45] = assay: Potency index, ratio of compound IC50 to dehydrozingerone IC50 for antiproliferative activity against human M14 cells; type: functional
SNB-19 [46] = assay: Antiproliferative activity against human SNB19 cells after 72 hrs by MTT assay; type: functional, cell-based; conditions: SNB-19, 72 h
PC-3 [47] = assay: Antimigratory activity in human PC3 cells at 2 uM measured during 120 hrs each 15 mins by RTCA DP based cellular impedance analysis; type: functional
PC-3 [48] = assay: Cell cycle arrest in human PC3 cells assessed as accumulation at G2/M phase at 10 uM after 72 hrs by RNase/propidium iodide staining-based flow cytometric analysis (reference value: 20 +/- 3%); type: functional
PC-3 [49] = assay: Induction of apoptosis in human PC3 cells assessed as viable cells at 30 uM after 24 hrs by Annexin V-PE/7-AAD staining-based flow cytometric analysis (reference value: 70%); type: functional; conditions: PC-3, 24 h, read-out: Activity

CCCC1OCc2c(/C=C/C(C)=O)cnc(C)c2O1 (configuration not stated)
IC50 (MCF7 [1]): 2.2 µM
IC50 (HEK293): 2.9 µM

CC(=O)/C=C/c1cnc(C)c2c1COC1(CCCCC1)O2
Ratio IC50 (OVCAR-4 [2]): 7 - 211
Activity (PC-3 [3]): 17%
Flu intensity (PC-3 [4]): 9999
Ratio IC50 (MDA-MB-231 [5]): 7 - 211
Ratio IC50 (A498 [6]): 7 - 211
IC50 (MCF7 [1]): 1.1 µM
IC50 (PC-3 [7]): 5.5 µM
Activity (PC-3 [8]): inactive
Ratio IC50 (MCF7 [9]): 7 - 211
Ratio IC50 (SNB-19 [10]): 7 - 211
Ratio IC50 (PC-3 [11]): 7 - 211
Ratio IC50 (HCT-116 [12]): 7 - 211
IC50 (A498 [13]): 6.5 µM
inhibition at 10 µM (PC-3 [14]): 47%
IC50 (HEK293): 16 µM
inhibition at 0.2 µM (PC-3 [15]): 11%
Activity [16]: inactive
Ratio IC50 (HCT-15 [17]): 7 - 211
Flu intensity (PC-3 [18]): 3085
Activity (PC-3 [19]): 61%
IC50 (NCI-H322M [20]): 4.6 µM
selectivity ratio [21]: 14.2
IC50 (HCT-15 [22]): 1.5 µM
IC50 [23]: 15.6 µM
selectivity ratio [24]: 7 to 211
Activity (PC-3 [25]): 18%
Activity (PC-3 [26]): 3%
Flu intensity (PC-3 [27]): 7587
Activity (PC-3 [28]): 52%
Activity (PC-3 [29]): 6%
Flu intensity (PC-3 [30]): 10524
IC50 (MDA-MB-231 [31]): 1.8 µM
IC50 (OVCAR-4 [32]): 19 µM
Activity (PC-3 [33]): 17%
Ratio IC50 (NCI-H322M [34]): 7 - 211
Activity (PC-3 [35]): 16%
Activity (PC-3 [36]): 52%
viability at 10 µM (PC-3 [37]): 63%
Activity (PC-3 [38]): 19%
Activity (PC-3 [39]): 3%
IC50 (HCT-116 [40]): 2.8 µM
Flu intensity (PC-3 [41]): 3680
Flu intensity (PC-3 [42]): 4486
inhibition at 10 µM (PC-3 [43]): 25%
IC50 (M14 [44]): 2.6 µM
Ratio IC50 (M14 [45]): 7 - 211
IC50 (SNB-19 [46]): 4.7 µM
inhibition at 2 µM (PC-3 [47]): 27%
Activity (PC-3 [48]): 29%
viability at 30 µM (PC-3 [49]): 39%
